# Where “and” joins values, the source holds several entries; their conditions need not be identical. Identical values can stand only once.
# Assays:
# [1] = tested on: LAT1; parameters: method as in PMID 21770378, PMID 11901210, PMID 25205473, PMID 30048132; details: cited from earlier work
# [2] = tested on: STC-1 xenografts; test: In vivo PET-CT quantitative image analysis, STC-1 xenografts; details: STC-1 tumors, NSG mice, 9MBq
# Procedure: (§1) All animal studies were carried out according to regulations set forth and approved by the Johns Hopkins Animal Care and Use Committee. Female, 6- to 8-weeks-old immunodeficient NOD scid gamma (NSG) mice were subcutaneously inoculated with 1 million PC12, STC-1 or COLO-320 cells in […] of Hank’s balanced salt solution in the top flank. Tumors of 4–6 mm in diameter (typically 14-21 days post inoculation) were utilized for in vivo imaging or ex vivo biodistribution studies.
# (§2) Mice (n=4) were injected with 9MBq (250μCi) of each tracer in 150μL of saline intravenously and anesthetized with 3% isoflurane prior to being placed on the scanner bed. Mice were kept warm with an external light source and maintained at 1% isoflurane levels while being scanned. PET imaging (2 beds; 10 min per bed) was carried out using an ARGUS small-animal PET/CT scanner (Sedecal). A CT scan (512 projections) was obtained at the end of each PET scan for anatomical co-registration. For in vivo blocking experiments, mice were injected with 10meq of LAT1 inhibitor. PET data were reconstructed using the 2-dimensional ordered subsets-expectation maximization algorithm (2D-OSEM) and corrected for dead time and radioactive decay. Data visualization and image generation were carried out using Amira 2019.1 (ThermoFisher Scientific).
# (§3) Quantitative in vivo image analysis was carried out in AMIDE (SourceForge) 1.0.4 utilizing ellipsoid region-of-interest volume integrations with 3 slices entailing a depth of 1.9 mm per slice. The %ID per cc values were calculated based on a calibration factor obtained from a phantom (known radioactive quantity in a known volume).
# [3] = tested on: PC12 cells; test: In vitro uptake (binding) assay in PC12 cells; type: cell-based; details: 30mins incubation, 1 million cells
# Procedure: (§4) Both [^18F]FDOPA enantiomers were initially assessed in vitro in all NET cells.
# (§5) In vitro binding assays were carried out, in triplicate, in PBS with 0.5% FBS, for 30mins at ambient temperatures using 1 million cells and repeated three times. Blocking studies were carried out using 10meq of the commercial LAT1 inhibitor, 2-Aminobicyclo[2.2.1]heptane-2-carboxylic acid (TOCRIS, MN, USA). Following incubation with each tracer, cells were rinsed three times with cold PBS prior to being counted on an automated gamma counter (1282 Compugamma CS; Pharmacia/LKBNuclear, Inc.) along with external standards. Obtained counts were converted into percentage incubated dose per million cells based on normalization to external standards. Experiments were performed in triplicate and repeated three times.
# [4] = tested on: LAT1; test: In vivo PET-CT blocking by BCH in NET mouse models; parameters: species or system mice; details: all NET mouse models (PC12, STC-1, COLO-320), 10meq LAT1 inhibitor
# Procedure: as §2, §3
# [5] = tested on: STC-1 xenografts; test: Ex vivo biodistribution in NSG mice bearing STC-1 xenografts; details: STC-1 xenograft NSG mice, 1.5MBq i.v.
# Procedure: as §1
# (§6) Mice (n=5 per group) were intravenously injected with 1.5MBq (40μCi) of each tracer in 150μL of saline. Ex vivo biodistribution studies were performed at 30min and 120min time points after tracer administration. Blood, liver, spleen, heart, lungs, kidneys, small intestines, stomach, muscle, fat, bone, bladder, brain and tumor tissues were retrieved, weighed, and counted in an automated gamma counter (1282 Compugamma CS). Percentage injected dose per gram (%ID/g) values were calculated based on normalization to external standards, counted in triplicate, and accounted for signal-decay correction.
# [6] = tested on: STC-1 cells; test: In vitro uptake (binding) assay in STC-1 cells; type: cell-based; details: 30mins incubation, 1 million cells, % incubated dose/million cells
# Procedure: as §4, §5
# [7] = tested on: COLO-320 xenografts; test: Ex vivo biodistribution in NSG mice bearing COLO-320 xenografts; details: for small intestines retention, fold higher than tumor uptake: COLO-320 mice
# Procedure: as §1, §6
# [8] = tested on: NET xenografts (STC-1, PC12, COLO-320); test: Ex vivo biodistribution, across all NET mouse models; type: in vivo, mice; details: for brain accumulation, average in all NET mice: average over STC-1, COLO-320 and PC12 mice
# Procedure: as §1, §6
# [9] = tested on: PC12 xenografts; test: Ex vivo biodistribution in NSG mice bearing PC12 xenografts; details: PC12 xenograft NSG mice, 1.5MBq i.v.
# Procedure: as §1, §6
# [10] = tested on: COLO-320 xenografts; test: In vivo PET-CT quantitative image analysis, COLO-320 xenografts; details: COLO-320 tumors, NSG mice, 9MBq
# Procedure: as §1, §2, §3
# [11] = tested on: PC12 xenografts; test: In vivo PET-CT quantitative image analysis, PC12 xenografts; details: PC12 tumors, NSG mice, 9MBq
# Procedure: as §1, §2, §3
# [12] = COLO-320 xenograft NSG mice, 30min p.i., 1.5MBq i.v.
# [13] = COLO-320 xenograft NSG mice, 120min p.i., 1.5MBq i.v.
smiles,measurement,setting,value
"N[C@H](Cc1ccc(O)c(O)c1)C(=O)O [D-DOPA, 3,4-dihydroxy-D-phenylalanine]",IC50,[1],46 ± 23 µM
"N[C@@H](Cc1ccc(O)c(O)c1)C(=O)O [L-DOPA, 3,4-dihydroxy-L-phenylalanine]",IC50,[1],69 ± 29 µM
"N[C@@H](Cc1cc(O)c(O)cc1[18F])C(=O)O [L-[^18F]FDOPA, 3,4-dihydroxy-6-[^18F]fluoro-L-phenylalanine]","tumor uptake, quantitative PET image analysis",[2]; 30min post i.v. injection,33.29±1.66 %ID/cc
same,"tumor uptake, quantitative PET image analysis",[2]; 120min post i.v. injection,10.38±1.31 %ID/cc
same,in vitro uptake,[3],19.73±0.71 % (incubated dose/million cells)
same,tumor uptake after in vivo blocking by BCH,[4],significantly reduced
same,"Biodistribution, Bladder",[5]; 30min p.i.,5.15 %ID/g
same,"Biodistribution, Blood",[5]; 30min p.i.,3.94 %ID/g
same,"Biodistribution, Bone",[5]; 30min p.i.,3.09 %ID/g
same,"Biodistribution, Brain",[5]; 30min p.i.,2.16 %ID/g
same,"Biodistribution, Fat",[5]; 30min p.i.,1.34 %ID/g
same,"Biodistribution, Heart",[5]; 30min p.i.,2.72 %ID/g
same,"Biodistribution, Kidneys",[5]; 30min p.i.,8.90 %ID/g
same,"Biodistribution, Liver",[5]; 30min p.i.,4.87 %ID/g
same,"Biodistribution, Lungs",[5]; 30min p.i.,4.13 %ID/g
same,"Biodistribution, Muscle",[5]; 30min p.i.,3.63 %ID/g
same,"Biodistribution, Pancreas",[5]; 30min p.i.,44.22 %ID/g
same,"Biodistribution, Small Intestines",[5]; 30min p.i.,16.04±2.47 %ID/g and 16.43 %ID/g
same,"Biodistribution, Spleen",[5]; 30min p.i.,3.98 %ID/g
same,"Biodistribution, Stomach",[5]; 30min p.i.,8.97 %ID/g
same,"Biodistribution, Tumor",[5]; 30min p.i.,11.06 %ID/g
same,"Biodistribution, Bladder",[5]; 120min p.i.,8.80 %ID/g
same,"Biodistribution, Blood",[5]; 120min p.i.,1.47 %ID/g
same,"Biodistribution, Bone",[5]; 120min p.i.,5.40 %ID/g
same,"Biodistribution, Brain",[5]; 120min p.i.,1.07 %ID/g
same,"Biodistribution, Fat",[5]; 120min p.i.,0.78 %ID/g
same,"Biodistribution, Heart",[5]; 120min p.i.,2.34 %ID/g
same,"Biodistribution, Kidneys",[5]; 120min p.i.,4.00 %ID/g
same,"Biodistribution, Liver",[5]; 120min p.i.,1.73 %ID/g
same,"Biodistribution, Lungs",[5]; 120min p.i.,1.89 %ID/g
same,"Biodistribution, Muscle",[5]; 120min p.i.,2.75 %ID/g
same,"Biodistribution, Pancreas",[5]; 120min p.i.,20±0.89 %ID/g and 20.71 %ID/g
same,"Biodistribution, Small Intestines",[5]; 120min p.i.,5.08 %ID/g
same,"Biodistribution, Spleen",[5]; 120min p.i.,6.55 %ID/g
same,"Biodistribution, Stomach",[5]; 120min p.i.,6.83 %ID/g
same,"Biodistribution, Tumor",[5]; 120min p.i.,6.98 %ID/g
same,in vitro uptake,[6],2.97±0.07%
same,"small intestines retention, fold higher than tumor uptake",[7]; 30min,5 fold
same,"small intestines retention, fold higher than tumor uptake",[7]; 120min,3 fold
same,"Biodistribution, Bladder",[7]; [12],8.38 %ID/g
same,"Biodistribution, Blood",[7]; [12],5.53 %ID/g
same,"Biodistribution, Bone",[7]; [12],5.05 %ID/g
same,"Biodistribution, Brain",[7]; [12],2.58 %ID/g
same,"Biodistribution, Fat",[7]; [12],0.95 %ID/g
same,"Biodistribution, Heart",[7]; [12],3.85 %ID/g
same,"Biodistribution, Kidneys",[7]; [12],13.60 %ID/g
same,"Biodistribution, Liver",[7]; [12],10.68 %ID/g
same,"Biodistribution, Lungs",[7]; [12],6.11 %ID/g
same,"Biodistribution, Muscle",[7]; [12],5.27 %ID/g
same,"Biodistribution, Pancreas",[7]; [12],57.82 %ID/g
same,"Biodistribution, Small Intestines",[7]; [12],15.72 %ID/g
same,"Biodistribution, Spleen",[7]; [12],5.72 %ID/g
same,"Biodistribution, Stomach",[7]; [12],11.27 %ID/g
same,"Biodistribution, Tumor",[7]; [12],5.15 %ID/g
same,"Biodistribution, Bladder",[7]; [13],14.73 %ID/g
same,"Biodistribution, Blood",[7]; [13],2.44 %ID/g
same,"Biodistribution, Bone",[7]; [13],7.40 %ID/g
same,"Biodistribution, Brain",[7]; [13],1.28 %ID/g
same,"Biodistribution, Fat",[7]; [13],1.76 %ID/g
same,"Biodistribution, Heart",[7]; [13],2.74 %ID/g
same,"Biodistribution, Kidneys",[7]; [13],4.16 %ID/g
same,"Biodistribution, Liver",[7]; [13],2.85 %ID/g
same,"Biodistribution, Lungs",[7]; [13],2.55 %ID/g
same,"Biodistribution, Muscle",[7]; [13],4.40 %ID/g
same,"Biodistribution, Pancreas",[7]; [13],37±5.43 %ID/g and 37.13 %ID/g
same,"Biodistribution, Small Intestines",[7]; [13],8.66 %ID/g
same,"Biodistribution, Spleen",[7]; [13],6.72 %ID/g
same,"Biodistribution, Stomach",[7]; [13],7.99 %ID/g
same,"brain accumulation, average in all NET mice",[8]; 30min p.i.,2.21±0.17 %ID/g
same,"brain accumulation, average in all NET mice",[8]; 120min p.i.,1.22±0.16 %ID/g
same,"tumor uptake, fold higher in STC-1 than in COLO-320 tumors",[8]; STC-1 vs COLO-320 tumors,> 2 fold
same,"Biodistribution, Bladder",[9]; 30min p.i.,7.24 %ID/g
same,"Biodistribution, Blood",[9]; 30min p.i.,4.14 %ID/g
same,"Biodistribution, Bone",[9]; 30min p.i.,3.86 %ID/g
same,"Biodistribution, Brain",[9]; 30min p.i.,1.90 %ID/g
same,"Biodistribution, Fat",[9]; 30min p.i.,1.25 %ID/g
same,"Biodistribution, Heart",[9]; 30min p.i.,2.96 %ID/g
same,"Biodistribution, Kidneys",[9]; 30min p.i.,14.60 %ID/g
same,"Biodistribution, Liver",[9]; 30min p.i.,8.59 %ID/g
same,"Biodistribution, Lungs",[9]; 30min p.i.,4.57 %ID/g
same,"Biodistribution, Muscle",[9]; 30min p.i.,4.70 %ID/g
same,"Biodistribution, Pancreas",[9]; 30min p.i.,50.08 %ID/g
same,"Biodistribution, Small Intestines",[9]; 30min p.i.,11.50 %ID/g
same,"Biodistribution, Spleen",[9]; 30min p.i.,4.30 %ID/g
same,"Biodistribution, Stomach",[9]; 30min p.i.,9.04 %ID/g
same,"Biodistribution, Bladder",[9]; 120min p.i.,14.06 %ID/g
same,"Biodistribution, Blood",[9]; 120min p.i.,2.19 %ID/g
same,"Biodistribution, Bone",[9]; 120min p.i.,7.19 %ID/g
same,"Biodistribution, Brain",[9]; 120min p.i.,1.31 %ID/g
same,"Biodistribution, Fat",[9]; 120min p.i.,1.78 %ID/g
same,"Biodistribution, Heart",[9]; 120min p.i.,2.45 %ID/g
same,"Biodistribution, Kidneys",[9]; 120min p.i.,4.84 %ID/g
same,"Biodistribution, Liver",[9]; 120min p.i.,3.01 %ID/g
same,"Biodistribution, Lungs",[9]; 120min p.i.,2.43 %ID/g
same,"Biodistribution, Muscle",[9]; 120min p.i.,3.48 %ID/g
same,"Biodistribution, Pancreas",[9]; 120min p.i.,36.66 %ID/g
same,"Biodistribution, Small Intestines",[9]; 120min p.i.,10.02 %ID/g
same,"Biodistribution, Spleen",[9]; 120min p.i.,6.11 %ID/g
same,"Biodistribution, Stomach",[9]; 120min p.i.,8.28 %ID/g
same,"tumor uptake, quantitative PET image analysis",[10]; 30min post i.v. injection,11.99±0.50 %ID/cc
same,"tumor uptake, quantitative PET image analysis",[10]; 120min post i.v. injection,15.10±1.30 %ID/cc
same,"tumor uptake, quantitative PET image analysis",[11]; 30min post i.v. injection,35.73±2.50 %ID/cc
same,"tumor uptake, quantitative PET image analysis",[11]; 120min post i.v. injection,18.82±1.55 %ID/cc

# — article PMC6791383, “A side-by-side evaluation of [^18F]FDOPA enantiomers for non-invasive detection of neuroendocrine tumors by positron emission tomography” (Oncotarget, 2019)
